Data as given in publication PMC3905694, “Targeting Low-Druggability Bromodomains: Fragment Based Screening and Inhibitor Design against the BAZ2B Bromodomain” (Journal of Medicinal Chemistry, 2013).
Values belong to the compound of their own block, whether it stands above or below them.

Columns and labels:
BAZ2B bromodomain [1] = target: T1, BAZ2B bromodomain (Homo sapiens, UniProt Q9UIF8); assay: Direct ITC titrations; type: binding; design: successful targeting of the challenging BAZ2B bromodomain; made in house; host or cells: E. coli BL21(DE3); conditions: in words
T1 sequence (Q9UIF8 2060-2164 limits assumed): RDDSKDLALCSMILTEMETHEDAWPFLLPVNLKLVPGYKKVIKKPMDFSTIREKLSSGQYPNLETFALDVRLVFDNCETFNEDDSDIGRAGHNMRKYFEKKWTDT

[2] = Solubility (qualitative remarks); type: physicochemical; conditions: in words
BRD2-BD1 = target: T2, BRD2-BD1 (Homo sapiens, UniProt P25440); assay: AlphaScreen fragment screen; type: binding; conditions: fragment library screen
T2 construct: screened against the bromodomains of BRD2-BD1 and CREBBP

CREBBP = target: T3, CREBBP (Homo sapiens, UniProt Q92793); assay: AlphaScreen fragment screen; type: binding; conditions: fragment library screen
T3 construct: screened against the bromodomains of BRD2-BD1 and CREBBP

BAZ2B bromodomain [3] = target: T1, BAZ2B bromodomain; assay: AlphaLISA competitive peptide displacement (antipentahis acceptor beads); conditions: in words

T2 sequence (P25440 74-180 limits assumed): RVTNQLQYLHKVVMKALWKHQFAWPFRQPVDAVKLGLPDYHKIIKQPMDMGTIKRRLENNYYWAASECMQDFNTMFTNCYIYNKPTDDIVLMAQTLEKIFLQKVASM
T3 sequence (Q92793 1085-1192 limits assumed): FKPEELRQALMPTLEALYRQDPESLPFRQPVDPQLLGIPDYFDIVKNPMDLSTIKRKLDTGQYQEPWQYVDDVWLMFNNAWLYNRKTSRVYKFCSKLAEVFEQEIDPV

SMILES: CNC(=O)c1cc(C)n(C)n1 [Compound 5]
hit in fragment screen (BRD2-BD1): hits
hit in fragment screen (CREBBP): hits

SMILES: CC(=O)N1CCc2[nH]c3ccc(Cl)cc3c2C1 [Compound 6]
solubility [2]: poor solubility
hit in fragment screen (BRD2-BD1): hits
hit in fragment screen (CREBBP): hits

Next, values leading:

binding to the protein (BAZ2B bromodomain [1]): Neither of these bound
SMILES: CC(=S)N1CCc2[nH]c3ccc(Cl)cc3c2C1 [Compound 38]

solubility [2]: improved solubility
SMILES: CNC(=O)N1CCc2[nH]c3ccc(Cl)cc3c2C1 [Compound 40]

binding to the protein (BAZ2B bromodomain [3]): Neither of these bound
SMILES: NC(=S)N1CCc2[nH]c3ccc(Cl)cc3c2C1 [Compound 39]
